Changes are numbered by the printed parent chain.
Columns and labels:
[1] = target: T1, Glycine receptor subunit alpha-1 (Homo sapiens) (UniProt P23415); test: Positive allosteric modulation of human GlyRalpha1 expressed in HEK293 cells assessed as potentiation of glycine-induced calcium flux by calcium dye-5 based FLIPR assay relative to glycine; type: cell-based
T1 sequence (whole entry): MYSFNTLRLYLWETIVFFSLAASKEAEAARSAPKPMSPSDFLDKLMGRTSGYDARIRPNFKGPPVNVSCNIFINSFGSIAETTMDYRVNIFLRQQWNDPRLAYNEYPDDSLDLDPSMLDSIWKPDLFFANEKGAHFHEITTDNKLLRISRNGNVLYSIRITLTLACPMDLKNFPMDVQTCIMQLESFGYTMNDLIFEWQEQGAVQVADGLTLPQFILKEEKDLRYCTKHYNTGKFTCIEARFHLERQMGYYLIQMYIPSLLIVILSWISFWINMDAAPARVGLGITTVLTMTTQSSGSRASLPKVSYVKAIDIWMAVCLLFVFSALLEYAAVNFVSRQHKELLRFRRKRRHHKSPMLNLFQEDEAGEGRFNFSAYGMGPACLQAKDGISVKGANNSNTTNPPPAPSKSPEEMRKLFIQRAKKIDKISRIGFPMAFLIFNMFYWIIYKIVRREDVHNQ

[2] = target: Glycine receptor (alpha-1/beta) (Homo sapiens) (UniProt P23415+P48167); test: Positive allosteric modulation of human GlyRalpha1beta expressed in HEK293 cells assessed as potentiation of glycine-induced calcium flux by calcium dye-5 based FLIPR assay relative to glycine; type: cell-based
[3] = target: T2, Glycine receptor subunit alpha-1 (Mus musculus, UniProt Q64018); test: Positive allosteric modulation of mouse GlyRalpha1 expressed in HEK293 cells assessed as potentiation of glycine-induced calcium flux by calcium dye-5 based FLIPR assay; type: cell-based
T2 sequence (Q64018 whole entry): T1 sequence (whole entry) with L9F, E362D, A365G, S396N, Q457K

[4] = target: T3, Glycine receptor subunit alpha-3 (Mus musculus, UniProt Q91XP5); test: Positive allosteric modulation of mouse GlyRalpha3 expressed in HEK293 cells assessed as potentiation of glycine-induced calcium flux by calcium dye-5 based FLIPR assay; type: cell-based
T3 sequence (Q91XP5 whole entry): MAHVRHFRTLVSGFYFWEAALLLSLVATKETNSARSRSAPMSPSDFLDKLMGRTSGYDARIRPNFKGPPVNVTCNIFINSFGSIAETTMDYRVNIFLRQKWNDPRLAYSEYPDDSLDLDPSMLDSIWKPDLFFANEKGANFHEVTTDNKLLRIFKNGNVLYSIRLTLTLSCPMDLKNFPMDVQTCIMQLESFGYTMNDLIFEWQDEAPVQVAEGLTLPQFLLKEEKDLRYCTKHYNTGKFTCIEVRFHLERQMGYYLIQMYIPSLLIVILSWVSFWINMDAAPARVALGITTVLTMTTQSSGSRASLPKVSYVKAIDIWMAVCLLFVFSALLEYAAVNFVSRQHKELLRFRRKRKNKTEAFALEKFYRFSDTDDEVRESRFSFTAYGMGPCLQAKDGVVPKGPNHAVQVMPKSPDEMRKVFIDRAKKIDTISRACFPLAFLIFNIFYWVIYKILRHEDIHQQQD

[5] = target: T4, Glycine receptor alpha-3/beta (Homo sapiens, UniProt O75311+P48167); test: Positive allosteric modulation of human GlyRalpha3beta expressed in HEK293 cells assessed as potentiation of glycine-induced calcium flux by calcium dye-5 based FLIPR assay relative to glycine; type: cell-based
[6] = target: T5, Glycine receptor subunit alpha-1 (Mus musculus) (UniProt Q64018); test: Positive allosteric modulation of mouse GlyRalpha1 expressed in HEK293 cells assessed as potentiation of glycine-induced calcium flux by calcium dye-5 based FLIPR assay relative to glycine; type: cell-based
T5 sequence (whole entry): T1 sequence (whole entry) with L9F, E362D, A365G, S396N, Q457K

[7] = target: T6, Glycine receptor subunit alpha-3 (Homo sapiens) (UniProt O75311); test: Positive allosteric modulation of human GlyRalpha3 expressed in HEK293 cells assessed as potentiation of glycine-induced calcium flux by calcium dye-5 based FLIPR assay relative to glycine; type: cell-based
T6 sequence (whole entry): T3 sequence (Q91XP5 whole entry) with N32D, T372M, V398M, V399T, A406P

[8] = target: T7, Glycine receptor subunit alpha-3 (Mus musculus) (UniProt Q91XP5); test: Positive allosteric modulation of mouse GlyRalpha3 expressed in HEK293 cells assessed as potentiation of glycine-induced calcium flux by calcium dye-5 based FLIPR assay relative to glycine; type: cell-based
T7 sequence (whole entry): T3 sequence (Q91XP5 whole entry)

[9] = target: T4, Glycine receptor alpha-3/beta; test: Positive allosteric modulation of human GlyRalpha3beta expressed in CHO cells assessed as potentiation of EC20 glycine-induced response at 5.9 uM by fluorescence based HTS assay; type: cell-based
[10] = target: T4, Glycine receptor alpha-3/beta; test: Positive allosteric modulation of human GlyRalpha3beta expressed in CHO cells assessed as potentiation of EC20 glycine-induced ion flux at 10 uM by HT assay; type: cell-based
[11] = target: T7, Glycine receptor subunit alpha-3 (Mus musculus); test: Allosteric modulation of GlyRalpha3 in VGAT::ChR2 BAC transgenic mouse lumbar spinal cord slices assessed as increase in decay time constants of light-evoked Gly-IPSC at 100 uM by Whole cell patch clamp method
[12] = target: T4, Glycine receptor alpha-3/beta; test: Positive allosteric modulation of human GlyRalpha3beta expressed in CHO cells assessed as potentiation of EC5 to EC10 glycine-induced response at 10 uM by manual patch clamp assay; type: cell-based
[13] = target: T7, Glycine receptor subunit alpha-3 (Mus musculus); test: Allosteric modulation of zymosan-A treated GlyRalpha3 in VGAT::ChR2 BAC transgenic mouse lumbar spinal cord slices assessed as increase in decay time constants of light-evoked Gly-IPSC at 100 uM by Whole cell patch clamp method
Mus musculus [14] = species on record: Mus musculus; test: Analgesic activity in zymosan-A induced inflammation mouse model assessed as reduction in mechanical hyperalgesia; type: functional; set-up: scale not given: the % may be the effect or the level left
Mus musculus [15] = species on record: Mus musculus; test: Analgesic activity in zymosan-A induced inflammation GlyR3 knock out mouse model assessed as reduction in mechanical hyperalgesia; type: functional; set-up: scale not given: the % may be the effect or the level left
[16] = target: T6, Glycine receptor subunit alpha-3 (Homo sapiens); test: Positive allosteric modulation of human GlyRalpha3 expressed in HEK293 cells assessed as potentiation of glycine-induced current flux at 100 uM by electrophysiology method relative to control; type: cell-based
[17] = target: T1, Glycine receptor subunit alpha-1 (Homo sapiens); test: Positive allosteric modulation of human GlyRalpha1 expressed in HEK293 cells assessed as potentiation of glycine-induced current flux at 100 uM by electrophysiology method relative to control; type: cell-based
[18] = target: T8, Glycine receptor subunit alpha-3 (Homo sapiens, UniProt O75311); test: Positive allosteric modulation of human GlyRalpha3 expressed in HEK293 cells assessed as potentiation of glycine-induced current flux by electrophysiology method; type: cell-based
T8 sequence (O75311 whole entry): T3 sequence (Q91XP5 whole entry) with N32D, T372M, V398M, V399T, A406P

Question: What does the source list for `CN1C(=O)[C@@H]2CN(S(=O)(=O)c3ccc4occc4c3)C[C@@H]2c2cnccc21`?
Answer: Emax [1]: 102%; Emax [2]: 104%; EC50 [3]: 0.268 µM; EC50 [4]: 0.49 µM; Emax [5]: 102%; Emax [6]: 93.5%; Emax [7]: 100%; Emax [8]: 63.5%

Question: What does the source list for `CC(C)(C)c1cccc(C(C)(C)C)c1O`?
Answer: Activity [9]: 134%; Activity [10]: 116%; Activity [11]: 54%; Activity [12]: 309%; Activity [13]: 23.5%; Activity (Mus musculus [14]): 44.3%; Activity (Mus musculus [15]): 16%

Question: For `CC1=C[C@@H](/C=C(\C)CCCC2=CCN(CC(=O)O)C2=O)[C@]2(OC(=O)C(C)(O)C2=O)[C@@H]2[C@@H](C)CC[C@@H]12` (stereo partly drawn), which Activity [16] is on record?
Answer: Its Activity is 260%.

Question: And the Activity [17]?
Answer: The Activity was 110%.

Question: What about the EC50 [18] of the same compound?
Answer: The EC50 was 8.5 µM.
